Experimental data as given in US6355799B1, “Substituted benzene compounds, process for their preparation, and herbicidal and defoliant compositions containing them” (ISK Americas Incorporated, priority 1997, dated 2002).

Tests used:
Assay type in all cases: in vivo
[1] = test system: upland rice (Oryza sp., var. Tebonnet, RICE); test: Post-emerge test, crop safety; settings: rating scale 0-100 (0 no damage, 100 complete death), 14 days after application
Procedure, shortened: (§1)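 Plants grown in 10 cm pots of sandy loam mix received acetone-dissolved compounds through a moving flat-fan nozzle. Doses ranged from 15 to 1000 g ai/ha. Pre-emerge pots were seeded one day earlier, post-emerge pots 8–21 days earlier. Fourteen days on, each pot was graded 0–100 for damage.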

[2] = test system: field corn (Zea mays L., var. Dekalb 535, CORN); test: Post-emerge test, crop safety; settings: rating scale 0-100 (0 no damage, 100 complete death), 14 days after application
Procedure, shortened: as §1

[3] = test system: upland rice (Oryza sp., var. Tebonnet, RICE); test: Pre-emerge test, crop safety; settings: rating scale 0-100, 14 days after application
Procedure, shortened: (§2)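 Visual ratings on a 0-100 scale (0 no damage, 100 all plants dead) were taken at 14 days after treatment. Rates of 15-1000 g ai/ha in acetone, 187 l/ha, were sprayed onto soil one day after planting (pre-emerge) or onto 2-3 leaf plants with 0.25% v/v surfactant (post-emerge).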

[4] = test system: field corn (Zea mays L., var. Dekalb 535, CORN); test: Pre-emerge test, crop safety; settings: rating scale 0-100, 14 days after application
Procedure, shortened: as §2

[5] = test system: redroot pigweed (Amaranthus retroflexus, AMARE); test: Pre-emerge test, greenhouse herbicide activity screening; settings: rating scale 0-100, 14 days after application
Procedure, shortened: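 Herbicidal damage is scored 0 (none) to 100 (complete plant death) two weeks after a simulated field spray. Rates span 15–1000 g ai/ha, delivered in acetone at 187 l/ha. For post-emergence treatments, plants have 2–3 leaves and the spray carries 0.25% v/v non-ionic surfactant.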

[6] = test system: green foxtail (Setaria viridis, SETVI); test: as above; settings: rating scale 0-100, 14 days after application
Procedure, shortened: (§3)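 Rating: 0–100 visual injury, 14 DAA. Application: acetone, 187 l/ha, 15–1000 g ai/ha, flat-fan track sprayer with nozzle 40–45 cm above soil or canopy. Post-emerge runs used 0.25% v/v surfactant on 2–3 leaf plants.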

[7] = test system: lambsquarters (Chenopodium album, CHEAL); test: as above; settings: rating scale 0-100, 14 days after application
Procedure, shortened: as §3

[8] = test system: sicklepod (Cassia obtusifolia, CASOB); test: as above; settings: rating scale 0-100, 14 days after application
Procedure, shortened: as §3

[9] = test system: velvetleaf (Abutilon theophrasti, ABUTH); test: as above; settings: rating scale 0-100, 14 days after application
Procedure, shortened: as §3

[10] = test system: large crabgrass (Digitaria sanguinalis, DIGSA); test: as above; settings: rating scale 0-100, 14 days after application
Procedure, shortened: as §3

[11] = test system: barnyardgrass (Echinochloa crus-galli, ECHCG); test: as above; settings: rating scale 0-100, 14 days after application
Procedure, shortened: as §3

[12] = test system: ivyleaf morningglory (Ipomoea hederacea, IPOHE); test: as above; settings: rating scale 0-100, 14 days after application
Procedure, shortened: as §3

[13] = test system: johnsongrass (Sorghum halepense, SORHA); test: as above; settings: rating scale 0-100, 14 days after application
Procedure, shortened: as §3

[14] = test system: common ragweed (Ambrosia artemisizfolia L., AMBEL); test: Post-emerge test, greenhouse herbicide activity screening; settings: rating scale 0-100 (0 no damage, 100 complete death), 14 days after application
Procedure, shortened: (§4)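 Each test used a mechanized track sprayer delivering 187 l/ha of acetone solution at 15–1000 g ai/ha. Post-emerge foliage at 2–3 leaves was treated with added 0.25% v/v non-ionic surfactant and bottom-watered only. Injury was assessed on day 14, where 100 means total kill.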

[15] = test system: green foxtail (Setaria viridis, SETVI); test: as above; settings: rating scale 0-100 (0 no damage, 100 complete death), 14 days after application
Procedure, shortened: as §4

[16] = test system: lambsquarters (Chenopodium album, CHEAL); test: as above; settings: rating scale 0-100 (0 no damage, 100 complete death), 14 days after application
Procedure, shortened: as §4

[17] = test system: sicklepod (Cassia obtusifolia, CASOB); test: as above; settings: rating scale 0-100 (0 no damage, 100 complete death), 14 days after application
Procedure, shortened: as §4

[18] = test system: velvetleaf (Abutilon theophrasti, ABUTH); test: as above; settings: rating scale 0-100 (0 no damage, 100 complete death), 14 days after application
Procedure, shortened: as §4

[19] = test system: large crabgrass (Digitaria sanguinalis, DIGSA); test: as above; settings: rating scale 0-100 (0 no damage, 100 complete death), 14 days after application
Procedure, shortened: as §4

[20] = test system: barnyardgrass (Echinochloa crus-galli, ECHCG); test: as above; settings: rating scale 0-100 (0 no damage, 100 complete death), 14 days after application
Procedure, shortened: as §4

[21] = test system: ivyleaf morningglory (Ipomoea hederacea, IPOHE); test: as above; settings: rating scale 0-100 (0 no damage, 100 complete death), 14 days after application
Procedure, shortened: as §4

[22] = test system: johnsongrass (Sorghum halepense, SORHA); test: as above; settings: rating scale 0-100 (0 no damage, 100 complete death), 14 days after application
Procedure, shortened: as §4

[23] = test system: redroot pigweed (Amaranthus retroflexus, AMARE); test: as above; settings: rating scale 0-100 (0 no damage, 100 complete death), 14 days after application
Procedure, shortened: as §4

COc1c(Cl)cc(F)c(-n2c(=O)cc(C(F)(F)F)n(C)c2=O)c1CC(Cl)C(=O)OCC(C)C (single isomer, unassigned) [14-15]
70: Pre-emerge herbicidal activity, phytotoxicity rating DIGSA ([10]; 63 g ai/ha) | Post-emerge Herbicidal Activity, phytotoxicity rating SETVI ([15]; Rate 63 g ai/ha)
90: Post-emerge Herbicidal Activity, phytotoxicity rating ABUTH ([18]; Rate 250 g ai/ha) | Post-emerge Herbicidal Activity, phytotoxicity rating IPOHE ([21]; Rate 250 g ai/ha)
60: Post-emerge phytotoxicity rating CORN (crop damage) ([2]; Rate 250 g ai/ha) | Post-emerge Herbicidal Activity, phytotoxicity rating ABUTH ([18]; Rate 63 g ai/ha)
50: Pre-emerge herbicidal activity, phytotoxicity rating ABUTH ([9]; 63 g ai/ha) | Post-emerge Herbicidal Activity, phytotoxicity rating CHEAL ([16]; Rate 63 g ai/ha) | Post-emerge Herbicidal Activity, phytotoxicity rating CASOB ([17]; Rate 250 g ai/ha) | Post-emerge Herbicidal Activity, phytotoxicity rating IPOHE ([21]; Rate 63 g ai/ha) | Post-emerge Herbicidal Activity, phytotoxicity rating SORHA ([22]; Rate 63 g ai/ha)
95: Pre-emerge herbicidal activity, phytotoxicity rating CHEAL ([7]; 250 g ai/ha) | Post-emerge Herbicidal Activity, phytotoxicity rating DIGSA ([19]; Rate 63 g ai/ha)
40: Pre-emerge herbicidal activity, phytotoxicity rating CASOB ([8]; 250 g ai/ha) | Post-emerge Herbicidal Activity, phytotoxicity rating SORHA ([22]; Rate 250 g ai/ha)
0: Post-emerge phytotoxicity rating RICE (crop damage) ([1]; Rate 63 g ai/ha) | Post-emerge phytotoxicity rating RICE (crop damage) ([1]; Rate 250 g ai/ha) | Pre-emerge phytotoxicity rating, crop damage RICE ([3]; 63 g ai/ha) | Pre-emerge phytotoxicity rating, crop damage RICE ([3]; 250 g ai/ha) | Pre-emerge phytotoxicity rating, crop damage CORN ([4]; 63 g ai/ha) | Pre-emerge phytotoxicity rating, crop damage CORN ([4]; 250 g ai/ha) | Pre-emerge herbicidal activity, phytotoxicity rating SETVI ([6]; 63 g ai/ha) | Pre-emerge herbicidal activity, phytotoxicity rating CASOB ([8]; 63 g ai/ha) | Pre-emerge herbicidal activity, phytotoxicity rating ECHCG ([11]; 63 g ai/ha) | Pre-emerge herbicidal activity, phytotoxicity rating IPOHE ([12]; 63 g ai/ha) | Pre-emerge herbicidal activity, phytotoxicity rating SORHA ([13]; 63 g ai/ha) | Pre-emerge herbicidal activity, phytotoxicity rating SORHA ([13]; 250 g ai/ha) | Post-emerge Herbicidal Activity, phytotoxicity rating CASOB ([17]; Rate 63 g ai/ha)
80: Pre-emerge herbicidal activity, phytotoxicity rating ECHCG ([11]; 250 g ai/ha) | Post-emerge Herbicidal Activity, phytotoxicity rating SETVI ([15]; Rate 250 g ai/ha)
20: Post-emerge phytotoxicity rating CORN (crop damage) ([2]; Rate 63 g ai/ha) | Pre-emerge herbicidal activity, phytotoxicity rating CHEAL ([7]; 63 g ai/ha) | Pre-emerge herbicidal activity, phytotoxicity rating IPOHE ([12]; 250 g ai/ha) | Post-emerge Herbicidal Activity, phytotoxicity rating AMBEL ([14]; Rate 63 g ai/ha)
100: Pre-emerge herbicidal activity, phytotoxicity rating AMARE ([5]; 63 g ai/ha) | Pre-emerge herbicidal activity, phytotoxicity rating AMARE ([5]; 250 g ai/ha) | Pre-emerge herbicidal activity, phytotoxicity rating ABUTH ([9]; 250 g ai/ha) | Pre-emerge herbicidal activity, phytotoxicity rating DIGSA ([10]; 250 g ai/ha) | Post-emerge Herbicidal Activity, phytotoxicity rating AMBEL ([14]; Rate 250 g ai/ha) | Post-emerge Herbicidal Activity, phytotoxicity rating CHEAL ([16]; Rate 250 g ai/ha) | Post-emerge Herbicidal Activity, phytotoxicity rating DIGSA ([19]; Rate 250 g ai/ha) | Post-emerge Herbicidal Activity, phytotoxicity rating ECHCG ([20]; Rate 63 g ai/ha) | Post-emerge Herbicidal Activity, phytotoxicity rating ECHCG ([20]; Rate 250 g ai/ha) | Post-emerge Herbicidal Activity, phytotoxicity rating AMARE ([23]; Rate 63 g ai/ha) | Post-emerge Herbicidal Activity, phytotoxicity rating AMARE ([23]; Rate 250 g ai/ha)
30: Pre-emerge herbicidal activity, phytotoxicity rating SETVI ([6]; 250 g ai/ha)
